# In publication PMC5008228 (Journal of Parkinson's Disease, 2016):
# “And” between values parts separate entries of the source, which are not always exact repeats. Equal entries are not always repeated.
# Key:
# [1] = Nilotinib pharmacokinetics in plasma by mass spectrometry; format: in vivo; conditions: human, po, unbound Nilotinib; for AUC: Plasma AUC; for Cmax: Plasma Cmax
# PDD or DLB participants [2] = experiment: Unified Parkinson's Disease Rating Scale; format: in vivo, human; conditions: for UPDRS-I-IV score / UPDRS-III score: individual participants; for Average decrease in UPDRS-III (motor): week 24 compared to baseline
# PDD or DLB participants [3] = experiment: Mini Mental State Examination; format: in vivo, human; conditions: 300 ng (sub-heading as printed) oral daily; for MMSE score, AVG: group AVG (Screening AVG 17); for MMSE score: individual participants
compound,measurement,setting,value
Cc1cn(-c2cc(NC(=O)c3ccc(C)c(Nc4nccc(-c5cccnc5)n4)c3)cc(C(F)(F)F)c2)cn1 [Nilotinib],AUC,"[1]; 150 mg, 150 mg oral",157 ng·h/mL
same,Cmax,"[1]; 150 mg, 150 mg oral",55 nM
same,AUC,"[1]; 300 mg, 300 mg oral",232 ng·h/mL
same,Cmax,"[1]; 300 mg, 300 mg oral",86 nM
same,"UPDRS-III score, AVG","PDD or DLB participants [2]; 150 mg oral daily, Week-4, group AVG (Screening AVG 37.8)",29.4
same,UPDRS-I-IV score,"PDD or DLB participants [2]; 150 mg oral daily, Week-4",54 and 103 and 43 and 71 and 50
same,UPDRS-III score,"PDD or DLB participants [2]; 150 mg oral daily, Week-4",29 and 55 and 33 and 26
same,"UPDRS-III score, AVG","PDD or DLB participants [2]; 150 mg oral daily, Week-8, group AVG (Screening AVG 37.8)",35.6
same,"UPDRS-I-IV score, AVG","PDD or DLB participants [2]; 150 mg oral daily, Week-8, group AVG (Screening AVG 72.60)",69.00
same,UPDRS-I-IV score,"PDD or DLB participants [2]; 150 mg oral daily, Week-8",57 and 76 and 63 and 45
same,UPDRS-III score,"PDD or DLB participants [2]; 150 mg oral daily, Week-8",32 and 56 and 39 and 28 and 23
same,"UPDRS-III score, AVG","PDD or DLB participants [2]; 150 mg oral daily, Week-12, group AVG (Screening AVG 37.8)",36.6
same,"UPDRS-I-IV score, AVG","PDD or DLB participants [2]; 150 mg oral daily, Week-12, group AVG (Screening AVG 72.60)",69.40
same,UPDRS-I-IV score,"PDD or DLB participants [2]; 150 mg oral daily, Week-12",56 and 107 and 77 and 60 and 47
same,UPDRS-III score,"PDD or DLB participants [2]; 150 mg oral daily, Week-12",32 and 59 and 40 and 30 and 22
same,"UPDRS-III score, AVG","PDD or DLB participants [2]; 150 mg oral daily, Week-16, group AVG (Screening AVG 37.8)",38
same,"UPDRS-I-IV score, AVG","PDD or DLB participants [2]; 150 mg oral daily, Week-16, group AVG (Screening AVG 72.60)",70.20
same,UPDRS-I-IV score,"PDD or DLB participants [2]; 150 mg oral daily, Week-16",58 and 107 and 80 and 63 and 43
same,UPDRS-III score,"PDD or DLB participants [2]; 150 mg oral daily, Week-16",33 and 59 and 43 and 22
same,"UPDRS-III score, AVG","PDD or DLB participants [2]; 150 mg oral daily, Week-20, group AVG (Screening AVG 37.8)",36.2
same,"UPDRS-I-IV score, AVG","PDD or DLB participants [2]; 150 mg oral daily, Week-20, group AVG (Screening AVG 72.60)",67.80
same,UPDRS-I-IV score,"PDD or DLB participants [2]; 150 mg oral daily, Week-20",53 and 83 and 57 and 38
same,UPDRS-III score,"PDD or DLB participants [2]; 150 mg oral daily, Week-20",29 and 60 and 42 and 31 and 19
same,"UPDRS-III score, AVG","PDD or DLB participants [2]; 150 mg oral daily, Week-24, group AVG (Screening AVG 37.8)",34.4
same,"UPDRS-I-IV score, AVG","PDD or DLB participants [2]; 150 mg oral daily, Week-24, group AVG (Screening AVG 72.60)",65.60
same,UPDRS-I-IV score,"PDD or DLB participants [2]; 150 mg oral daily, Week-24",44 and 83 and 53 and 40
same,UPDRS-III score,"PDD or DLB participants [2]; 150 mg oral daily, Week-24",23 and 60 and 42 and 29 and 18
same,Average decrease in UPDRS I-IV,"PDD or DLB participants [2]; 150 mg oral daily, at 6 months",7 points
same,Average decrease in UPDRS-III (motor),PDD or DLB participants [2]; 150 mg oral daily,3.4 points
same,"UPDRS-III score, AVG","PDD or DLB participants [2]; 300 mg oral daily, Week-4, group AVG (Screening AVG 30.6)",28
same,"UPDRS-I-IV score, AVG","PDD or DLB participants [2]; 300 mg oral daily, Week-4, group AVG (Screening AVG 62.5)",60.8
same,UPDRS-I-IV score,"PDD or DLB participants [2]; 300 mg oral daily, Week-4",31 and 45 and 21 and 49 and 116 and 103
same,UPDRS-III score,"PDD or DLB participants [2]; 300 mg oral daily, Week-4",11 and 14 and 7 and 22 and 67 and 47
same,"UPDRS-III score, AVG","PDD or DLB participants [2]; 300 mg oral daily, Week-8, group AVG (Screening AVG 30.6)",28
same,"UPDRS-I-IV score, AVG","PDD or DLB participants [2]; 300 mg oral daily, Week-8, group AVG (Screening AVG 62.5)",60.3
same,UPDRS-I-IV score,"PDD or DLB participants [2]; 300 mg oral daily, Week-8",28 and 41 and 25 and 45 and 118 and 105
same,UPDRS-III score,"PDD or DLB participants [2]; 300 mg oral daily, Week-8",9 and 11 and 18 and 70 and 49
same,"UPDRS-III score, AVG","PDD or DLB participants [2]; 300 mg oral daily, Week-12, group AVG (Screening AVG 30.6)",26.6
same,"UPDRS-I-IV score, AVG","PDD or DLB participants [2]; 300 mg oral daily, Week-12, group AVG (Screening AVG 62.5)",57.3
same,UPDRS-I-IV score,"PDD or DLB participants [2]; 300 mg oral daily, Week-12",26 and 41 and 19 and 46 and 115 and 97
same,UPDRS-III score,"PDD or DLB participants [2]; 300 mg oral daily, Week-12",9 and 11 and 8 and 18 and 67 and 47
same,"UPDRS-III score, AVG","PDD or DLB participants [2]; 300 mg oral daily, Week-16, group AVG (Screening AVG 30.6)",27.8
same,"UPDRS-I-IV score, AVG","PDD or DLB participants [2]; 300 mg oral daily, Week-16, group AVG (Screening AVG 62.5)",58.8
same,UPDRS-I-IV score,"PDD or DLB participants [2]; 300 mg oral daily, Week-16",33 and 46 and 17 and 49 and 113 and 95
same,UPDRS-III score,"PDD or DLB participants [2]; 300 mg oral daily, Week-16",13 and 16 and 6 and 21 and 67 and 44
same,"UPDRS-III score, AVG","PDD or DLB participants [2]; 300 mg oral daily, Week-20, group AVG (Screening AVG 30.6)",26.8
same,"UPDRS-I-IV score, AVG","PDD or DLB participants [2]; 300 mg oral daily, Week-20, group AVG (Screening AVG 62.5)",55.3
same,UPDRS-I-IV score,"PDD or DLB participants [2]; 300 mg oral daily, Week-20",23 and 41 and 16 and 54 and 106 and 92
same,UPDRS-III score,"PDD or DLB participants [2]; 300 mg oral daily, Week-20",7 and 16 and 21 and 69 and 41
same,"UPDRS-III score, AVG","PDD or DLB participants [2]; 300 mg oral daily, Week-24, group AVG (Screening AVG 30.6)",27
same,"UPDRS-I-IV score, AVG","PDD or DLB participants [2]; 300 mg oral daily, Week-24, group AVG (Screening AVG 62.5)",51.6
same,UPDRS-I-IV score,"PDD or DLB participants [2]; 300 mg oral daily, Week-24",20 and 28 and 15 and 45 and 107 and 95
same,UPDRS-III score,"PDD or DLB participants [2]; 300 mg oral daily, Week-24",9 and 12 and 6 and 21 and 70 and 44
same,Average decrease in UPDRS-III (motor),PDD or DLB participants [2]; 300 mg oral daily,3.6 points
same,"MMSE score, AVG",PDD or DLB participants [3]; Week-4,20.3
same,MMSE score,PDD or DLB participants [3]; Week-4,27 and 28 and 24 and 5 and 10
same,"MMSE score, AVG",PDD or DLB participants [3]; Week-8,18.1
same,MMSE score,PDD or DLB participants [3]; Week-8,28 and 23 and 24 and 2 and 8
